From patent US20050180922A1, “Block co-polymer worm micelles and methods of use therefor” (priority 2004, published 2005)

Key:
[1] = Taxol loading into worm micelle core (HPLC); type: physicochemical; settings: confirmed by HPLC
Method: In vitro assays. Drug delivery with liposomes entails loading either hydrophilic drugs or nucleic acids into the interior of the assembly (Wagner et al., Proc. Nat'l Acad. Sci. USA 89:7934 (1992)), or hydrophobic drugs into the lipid bilayer (Wenk et al., J. Pharm. Sci. 85:228 (1996)). The worm micelles in this study were loaded with the drug taxol, one of a variety of hydrophobic drugs available for killing tumor cells. Taxol binds to, and toxically stabilizes, microtubules at 1-10 nM (Gloushankova et al., Proc. Nat'l. Acad. Sci. USA 91:8597 (1994)).

[2] = tested on: microtubules; settings: cited from earlier work

Compound: CC(=O)O[C@H]1C(=O)[C@@]2(C)[C@H]([C@H](OC(=O)c3ccccc3)[C@]3(O)C[C@H](OC(=O)[C@H](O)[C@@H](NC(=O)c4ccccc4)c4ccccc4)C(C)=C1C3(C)C)[C@]1(OC(C)=O)CO[C@@H]1C[C@@H]2O [taxol, paclitaxel]
- taxol partition into hydrophobic core [1]: one molecule of taxol partitions into the hydrophobic core per ten copolymers
- concentration that binds and toxically stabilizes microtubules [2]: 1 to 10 nM
